According to ChEMBL document CHEMBL1201862, “PubChem BioAssay data set” (2004):
The source made the active and inactive calls. Rule as the data show it, for most assays here: actives have a measured IC50 and inactives only a lower limit.

Assays:
[1] = biological target: Scavenger receptor class B member 1 (Mus musculus, UniProt Q61009); assay: inhibitors of SR-BI mediated HDL lipid uptake, dose response, ldlA[mSR-BI] cells, fluorescence, cherry pick (AID 493194); assay type: functional, cell-based;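 also: cellular uptake of fluorescent DiI-labeled HDL measured as cell fluorescence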
Chain of Scavenger receptor class B member 1 (Q61009 whole entry): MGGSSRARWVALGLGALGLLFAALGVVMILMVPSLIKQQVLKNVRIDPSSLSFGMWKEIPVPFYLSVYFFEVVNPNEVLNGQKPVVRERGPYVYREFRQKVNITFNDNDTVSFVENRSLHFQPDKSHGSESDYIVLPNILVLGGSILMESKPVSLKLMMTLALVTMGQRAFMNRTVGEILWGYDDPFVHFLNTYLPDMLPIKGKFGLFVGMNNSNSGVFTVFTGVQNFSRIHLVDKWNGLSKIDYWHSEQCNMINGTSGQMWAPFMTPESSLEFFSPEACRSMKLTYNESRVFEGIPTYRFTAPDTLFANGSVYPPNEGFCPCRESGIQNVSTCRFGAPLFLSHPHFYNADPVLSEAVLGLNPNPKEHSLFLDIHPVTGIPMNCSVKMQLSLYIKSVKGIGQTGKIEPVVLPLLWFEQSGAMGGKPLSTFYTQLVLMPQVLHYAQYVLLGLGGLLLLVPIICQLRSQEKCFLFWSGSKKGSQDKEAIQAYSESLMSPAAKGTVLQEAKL

Genome polyprotein = Genome polyprotein (dengue virus type 2, UniProt P29990); assay: Dengue-2 NS5 methyltransferase inhibitors, primary screen, biochemical, confirmation dose response (AID 588689); assay type: functional
Chain of Genome polyprotein (P29990 2492-3391 limits assumed): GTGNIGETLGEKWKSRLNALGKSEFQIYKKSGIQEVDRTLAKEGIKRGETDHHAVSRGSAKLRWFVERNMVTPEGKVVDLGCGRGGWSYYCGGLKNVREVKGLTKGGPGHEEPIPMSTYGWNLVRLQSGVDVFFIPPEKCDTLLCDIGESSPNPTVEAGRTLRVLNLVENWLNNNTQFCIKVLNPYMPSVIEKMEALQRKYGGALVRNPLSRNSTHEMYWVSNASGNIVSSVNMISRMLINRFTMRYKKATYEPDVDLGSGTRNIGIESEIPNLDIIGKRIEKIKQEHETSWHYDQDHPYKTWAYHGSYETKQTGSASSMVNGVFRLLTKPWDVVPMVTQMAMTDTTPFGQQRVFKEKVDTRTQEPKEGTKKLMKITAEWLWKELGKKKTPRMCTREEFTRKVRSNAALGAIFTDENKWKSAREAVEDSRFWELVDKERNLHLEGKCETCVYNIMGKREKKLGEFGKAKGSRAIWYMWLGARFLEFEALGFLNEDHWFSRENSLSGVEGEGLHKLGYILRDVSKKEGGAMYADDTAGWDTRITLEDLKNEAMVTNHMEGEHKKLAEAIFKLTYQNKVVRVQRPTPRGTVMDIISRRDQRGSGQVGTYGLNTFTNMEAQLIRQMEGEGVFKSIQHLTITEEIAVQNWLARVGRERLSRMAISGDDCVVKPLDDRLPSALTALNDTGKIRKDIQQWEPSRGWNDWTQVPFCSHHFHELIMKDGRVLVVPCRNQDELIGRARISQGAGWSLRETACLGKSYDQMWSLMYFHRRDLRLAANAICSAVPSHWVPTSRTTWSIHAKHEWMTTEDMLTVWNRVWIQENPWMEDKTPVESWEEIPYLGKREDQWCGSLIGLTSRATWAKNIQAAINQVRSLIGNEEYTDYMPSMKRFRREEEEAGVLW

Streptokinase A = biological target: T1, Streptokinase A (Streptococcus pyogenes serotype M1, UniProt P10520); assay: S. pyogenes streptokinase expression inhibitors, potency, dose response, plasminogen activation absorbance, OD405 (AID 1914); assay type: functional, Streptococcus pyogenes M1 GAS;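 also: secreted streptokinase activity via plasminogen activation per viability signal from cell pellet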
T1 sequence (P10520 whole entry): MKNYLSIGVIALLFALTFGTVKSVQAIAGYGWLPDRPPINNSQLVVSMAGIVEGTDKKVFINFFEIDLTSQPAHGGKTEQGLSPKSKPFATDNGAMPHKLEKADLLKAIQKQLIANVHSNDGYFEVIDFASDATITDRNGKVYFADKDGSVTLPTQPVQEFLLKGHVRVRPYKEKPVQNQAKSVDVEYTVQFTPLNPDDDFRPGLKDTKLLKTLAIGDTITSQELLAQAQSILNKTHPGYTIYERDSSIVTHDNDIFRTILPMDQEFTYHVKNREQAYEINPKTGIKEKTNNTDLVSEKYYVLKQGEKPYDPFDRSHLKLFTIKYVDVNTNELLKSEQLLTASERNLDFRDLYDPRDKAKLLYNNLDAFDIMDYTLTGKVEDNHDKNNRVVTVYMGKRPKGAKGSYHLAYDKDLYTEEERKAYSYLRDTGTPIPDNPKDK

[2] = biological target: T2, Nucleotide-binding oligomerization domain-containing protein 1 (Homo sapiens, UniProt Q9Y239); assay: NOD1 signaling inhibitors, SAR follow-up, revised (AID 2333); assay type: functional
T2 sequence (Q9Y239 whole entry): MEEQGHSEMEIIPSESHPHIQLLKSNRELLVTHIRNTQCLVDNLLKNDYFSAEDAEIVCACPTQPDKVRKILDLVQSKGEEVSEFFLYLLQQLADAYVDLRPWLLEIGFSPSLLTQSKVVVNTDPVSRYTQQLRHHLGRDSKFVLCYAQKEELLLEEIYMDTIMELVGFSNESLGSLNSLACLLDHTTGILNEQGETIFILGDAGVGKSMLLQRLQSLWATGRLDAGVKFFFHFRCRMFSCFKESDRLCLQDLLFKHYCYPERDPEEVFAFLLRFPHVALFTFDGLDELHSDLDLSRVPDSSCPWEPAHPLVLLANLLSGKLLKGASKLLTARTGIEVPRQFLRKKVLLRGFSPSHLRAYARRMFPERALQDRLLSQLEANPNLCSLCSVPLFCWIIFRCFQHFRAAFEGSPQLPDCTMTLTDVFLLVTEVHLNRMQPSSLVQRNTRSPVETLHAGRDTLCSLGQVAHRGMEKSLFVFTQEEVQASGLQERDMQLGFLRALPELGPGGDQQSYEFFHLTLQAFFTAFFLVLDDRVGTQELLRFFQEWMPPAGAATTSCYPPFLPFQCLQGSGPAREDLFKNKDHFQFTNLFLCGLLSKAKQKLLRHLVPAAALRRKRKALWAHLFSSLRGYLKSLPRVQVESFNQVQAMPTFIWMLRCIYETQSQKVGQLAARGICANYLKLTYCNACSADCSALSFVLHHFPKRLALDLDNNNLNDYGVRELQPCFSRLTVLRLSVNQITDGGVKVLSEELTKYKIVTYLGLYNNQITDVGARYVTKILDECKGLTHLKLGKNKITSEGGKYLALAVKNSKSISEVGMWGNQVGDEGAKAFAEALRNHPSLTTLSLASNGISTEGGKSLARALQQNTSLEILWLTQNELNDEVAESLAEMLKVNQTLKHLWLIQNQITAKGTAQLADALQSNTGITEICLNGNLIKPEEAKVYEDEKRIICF

[3] = biological target: Nucleotide-binding oligomerization domain-containing protein 2 (Homo sapiens, UniProt Q9HC29); assay: PubChem AID 2334; assay type: functional
Chain of Nucleotide-binding oligomerization domain-containing protein 2 (Q9HC29 whole entry, the tested form may be a part): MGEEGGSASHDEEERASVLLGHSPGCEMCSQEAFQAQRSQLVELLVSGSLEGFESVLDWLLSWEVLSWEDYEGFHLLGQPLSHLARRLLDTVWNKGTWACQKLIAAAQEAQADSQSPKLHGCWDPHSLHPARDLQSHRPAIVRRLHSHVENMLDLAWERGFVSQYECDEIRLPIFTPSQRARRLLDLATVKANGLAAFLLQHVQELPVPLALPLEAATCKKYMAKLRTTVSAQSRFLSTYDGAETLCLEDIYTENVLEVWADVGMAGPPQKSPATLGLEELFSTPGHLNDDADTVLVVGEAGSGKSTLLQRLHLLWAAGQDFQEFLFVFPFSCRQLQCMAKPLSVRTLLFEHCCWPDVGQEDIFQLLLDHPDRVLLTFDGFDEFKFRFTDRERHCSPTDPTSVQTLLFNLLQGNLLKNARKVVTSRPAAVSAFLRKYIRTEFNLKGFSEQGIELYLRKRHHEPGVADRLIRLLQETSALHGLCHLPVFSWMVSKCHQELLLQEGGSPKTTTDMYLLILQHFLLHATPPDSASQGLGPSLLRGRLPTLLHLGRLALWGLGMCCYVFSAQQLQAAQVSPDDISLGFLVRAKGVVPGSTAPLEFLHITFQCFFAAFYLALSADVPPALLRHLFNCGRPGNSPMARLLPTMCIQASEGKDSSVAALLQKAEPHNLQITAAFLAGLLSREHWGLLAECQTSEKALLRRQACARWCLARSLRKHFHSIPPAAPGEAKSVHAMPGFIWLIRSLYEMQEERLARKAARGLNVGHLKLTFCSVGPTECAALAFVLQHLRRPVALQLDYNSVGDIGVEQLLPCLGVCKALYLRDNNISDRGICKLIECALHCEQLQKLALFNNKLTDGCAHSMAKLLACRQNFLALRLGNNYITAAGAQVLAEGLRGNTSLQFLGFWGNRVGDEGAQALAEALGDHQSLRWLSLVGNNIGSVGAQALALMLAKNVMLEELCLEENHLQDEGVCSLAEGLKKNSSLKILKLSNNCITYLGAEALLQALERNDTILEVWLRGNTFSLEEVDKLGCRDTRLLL

Tumor necrosis factor = Tumor necrosis factor (Homo sapiens, UniProt P01375); assay: TNFa-triggered NF-kB activation inhibitors, SAR follow-up, cell-based, revised (AID 2337); assay type: functional
Chain of Tumor necrosis factor (P01375 whole entry): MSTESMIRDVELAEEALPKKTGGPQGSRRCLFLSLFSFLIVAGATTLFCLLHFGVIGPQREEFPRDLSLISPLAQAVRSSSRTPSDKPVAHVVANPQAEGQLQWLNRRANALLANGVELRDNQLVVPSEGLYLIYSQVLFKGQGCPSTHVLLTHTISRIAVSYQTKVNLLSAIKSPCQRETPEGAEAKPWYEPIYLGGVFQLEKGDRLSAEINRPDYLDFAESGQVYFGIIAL

[4] = biological target: T3, Tyrosine-protein phosphatase non-receptor type 7 (Homo sapiens, UniProt P35236); assay type: functional
T3 sequence (P35236 whole entry): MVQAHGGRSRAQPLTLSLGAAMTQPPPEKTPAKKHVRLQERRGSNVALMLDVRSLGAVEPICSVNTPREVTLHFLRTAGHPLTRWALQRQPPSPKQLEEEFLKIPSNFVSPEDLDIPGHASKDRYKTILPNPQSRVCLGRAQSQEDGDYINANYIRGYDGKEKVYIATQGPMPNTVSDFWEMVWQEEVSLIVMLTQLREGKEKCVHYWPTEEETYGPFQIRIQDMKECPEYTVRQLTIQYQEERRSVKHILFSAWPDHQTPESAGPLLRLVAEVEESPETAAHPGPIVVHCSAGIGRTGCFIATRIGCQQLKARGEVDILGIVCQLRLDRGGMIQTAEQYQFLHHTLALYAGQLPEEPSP

[5] = biological target: Glyceraldehyde-3-phosphate dehydrogenase (Homo sapiens, UniProt P04406)
Chain of Glyceraldehyde-3-phosphate dehydrogenase (P04406 whole entry): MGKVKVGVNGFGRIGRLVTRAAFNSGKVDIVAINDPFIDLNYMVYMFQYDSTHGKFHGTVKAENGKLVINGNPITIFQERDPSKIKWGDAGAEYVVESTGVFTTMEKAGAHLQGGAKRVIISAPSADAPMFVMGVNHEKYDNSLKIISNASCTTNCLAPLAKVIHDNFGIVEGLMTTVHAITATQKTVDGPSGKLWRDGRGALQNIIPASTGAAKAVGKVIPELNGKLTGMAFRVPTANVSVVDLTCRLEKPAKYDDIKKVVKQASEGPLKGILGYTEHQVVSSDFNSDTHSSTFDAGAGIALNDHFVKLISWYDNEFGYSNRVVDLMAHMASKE

[6] = biological target: T4, Dual specificity protein phosphatase 6 (Rattus norvegicus, UniProt Q64346)
T4 sequence (Q64346 whole entry): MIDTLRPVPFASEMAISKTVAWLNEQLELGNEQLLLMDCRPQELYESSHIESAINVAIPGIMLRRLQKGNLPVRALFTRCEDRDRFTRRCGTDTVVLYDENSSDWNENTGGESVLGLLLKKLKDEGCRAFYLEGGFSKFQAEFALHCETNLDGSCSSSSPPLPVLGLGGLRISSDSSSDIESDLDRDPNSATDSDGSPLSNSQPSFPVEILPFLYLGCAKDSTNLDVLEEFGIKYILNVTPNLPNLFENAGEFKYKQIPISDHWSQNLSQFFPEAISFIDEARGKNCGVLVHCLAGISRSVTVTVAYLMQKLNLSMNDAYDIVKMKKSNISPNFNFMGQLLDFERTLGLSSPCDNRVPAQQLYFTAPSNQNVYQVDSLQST

[7] = biological target: T4, Dual specificity protein phosphatase 6; assay type: functional
[8] = biological target: DNA dC->dU-editing enzyme APOBEC-3G (Homo sapiens, UniProt Q9HC16); assay: Dose Response confirmation of small molecule APOBEC3G DNA Deaminase Inhibitors via a fluorescence-based single-stranded DNA deaminase assay. [Related pubchem assays (depositor defined):AID493012, AID493028]; assay type: functional
Chain of DNA dC->dU-editing enzyme APOBEC-3G (Q9HC16 whole entry): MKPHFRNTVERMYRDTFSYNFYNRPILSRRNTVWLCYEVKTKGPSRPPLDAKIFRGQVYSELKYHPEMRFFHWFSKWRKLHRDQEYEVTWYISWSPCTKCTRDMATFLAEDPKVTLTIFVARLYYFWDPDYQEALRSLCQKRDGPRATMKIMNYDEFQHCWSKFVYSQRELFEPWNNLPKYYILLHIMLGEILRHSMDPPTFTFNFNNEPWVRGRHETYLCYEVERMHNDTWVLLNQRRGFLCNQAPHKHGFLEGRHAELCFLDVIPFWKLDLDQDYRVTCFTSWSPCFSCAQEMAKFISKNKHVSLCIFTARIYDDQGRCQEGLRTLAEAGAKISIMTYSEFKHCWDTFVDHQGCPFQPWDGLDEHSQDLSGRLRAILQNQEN

[9] = biological target: DNA dC->dU-editing enzyme APOBEC-3A (Homo sapiens, UniProt P31941); assay: APOBEC3A DNA deaminase inhibitors, dose response, biochemical (AID 504722); assay type: functional
Chain of DNA dC->dU-editing enzyme APOBEC-3A (P31941 whole entry): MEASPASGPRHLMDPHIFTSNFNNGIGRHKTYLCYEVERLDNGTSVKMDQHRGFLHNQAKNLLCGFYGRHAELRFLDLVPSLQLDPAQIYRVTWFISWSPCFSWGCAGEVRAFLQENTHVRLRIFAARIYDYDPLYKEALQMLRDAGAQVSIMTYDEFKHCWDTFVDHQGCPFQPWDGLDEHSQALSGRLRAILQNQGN

SMILES | AC50 [1] | IC50 [4] | IC50 [5] | IC50 [6] | IC50 [7] | other results
CCn1c(COc2c(C)cccc2C)nnc1SCC(=O)N1CCN(c2ccccc2)CC1 | 23 µM (active) | – | – | – | – | –
N#Cc1c(-c2ccccc2)nc(SCc2cccc(C(F)(F)F)c2)[nH]c1=O | – | – | – | – | – | IC50 (Genome polyprotein): 42.7 µM (active); EC50 (Streptokinase A): 6.34 µM (active); IC50 [2]: 6.48 µM (active); IC50 [3]: 7.5 µM (active); IC50 (Tumor necrosis factor): 8.05 µM (active)
CCCCCCn1c(=O)nc(NCc2ccccc2OC)[nH]c1=O | – | > 100 µM (not active) | > 100 µM (not active) | > 100 µM (inactive) | > 100 µM (inactive) | –
CCOC(=O)C1Nc2c(O)ccc(C)c2C2C=CCC12 (configuration not stated) | – | > 100 µM (not active) | > 100 µM (not active) | > 100 µM (inactive) | > 100 µM (inactive) | –
CC(/C=N/n1c(S)nnc1-c1cc(C)[nH]n1)=C\c1ccco1 | – | – | – | – | – | IC50 [8]: 2.47 µM (active); IC50 [9]: > 100 µM (inactive)
Cc1cc(-c2csc(N)n2)c(C)n1-c1ccc(Cl)c(Cl)c1 | 12.9 µM (active) | – | – | – | – | –
